Results from patent US20250163002A1, “FUSED QUINONOXIME IMIDAZOLE, ONIUM DERIVATIVES THEREOF, PREPARATION AND USE THEREOF” (SHANGHAI JIAO TONG UNIVERSITY, priority 2022, published 2025).

Columns and labels:
Format in all cases: cell-based
L929 = assay: In vitro cell proliferation inhibition test (MTT), L929; settings: unit inferred
MCF-7 = assay: In vitro inhibition test for cancer cell proliferation (MTT), MCF-7; settings: unit inferred
HeLa = assay: In vitro inhibition test for cancer cell proliferation (MTT), HeLa; settings: 24 h or 48 h after addition, unit inferred
A549 = assay: In vitro inhibition test for cancer cell proliferation (MTT), A549; settings: unit inferred
[1] = Mus musculus, L929, 24 h or 48 h after addition
[2] = Homo sapiens, MCF7, 24 h or 48 h after addition
[3] = Homo sapiens, A549, 24 h or 48 h after addition

IC50 (MCF-7; [2]) [µM] | IC50 (HeLa; Homo sapiens, HeLa) [µM] | IC50 (A549; [3]) [µM] | SMILES | IC50 (L929; 24 h or 48 h after addition) [µM] | IC50 (MCF-7; 24 h or 48 h after addition) [µM] | IC50 (HeLa) [µM] | IC50 (A549; 24 h or 48 h after addition) [µM] | IC50 (L929; [1]) [µM]
 |  |  | Cn1c[n+](C)c2c1C(=O)c1ccccc1C2=NOCc1ccc(Cl)cc1 [Compound 134, (E) and (Z)-4-(((4-chlorobenzyl)oxy)imino)-1,3-dimethyl-9-oxo-4,9-dihydro-1H-naphthol[2,3-d]imidazole-3-iodide] | 4.9 | 25.6 | 17.5 | 0.07 | 
 |  |  | Cn1c[n+](C)c2c1C(=O)c1cc3ccccc3cc1C2=NOCc1ccccc1 [Compound 149, (E) and (Z)-4-((benzyloxy)imino)-1,3-dimethyl-11-oxo-4, 11-dihydro-1H-anthracene[2,3-d]imidazole-3-iodide] | > 100 | 75.3 | 67.4 | 0.33 | 
 |  |  | Cn1c[n+](C)c2c1C(=O)c1ccccc1C2=NOCc1ccccc1 [Compound 138, (E) and (Z)-4-((benzyloxy)imino)-1,3-dimethyl-9-oxo-4,9-dihydro-1H-naphthol[2,3-d]imidazole-3-iodide] | 25.9 | 5.9 | 4.2 | 0.004 | 
 |  |  | CC(C)n1c[n+](C)c2c1C(=O)c1ccccc1/C2=N\O [Compound 95, (E)-4-(hydroxylimino)-1-isopropyl-3-methyl-9-oxo-4,9-dihydro-1H-naphthol[2,3-d]imidazole-3-iodide] | 26.3 | 2 | 18.3 | 1.89 | 
 |  |  | CC(C)Cn1c[n+](C)c2c1C(=O)c1ccccc1/C2=N\O [Compound 96, (E)-4-(hydroxylimino)-1-isobutyl-3-methyl-9-oxo-4,9-dihydro-1H-naphthol[2,3-d]imidazole-3-iodide] | 57.4 | 1.26 | 9.7 | 2.43 | 
 |  |  | CCCCn1c[n+](CC)c2c1C(=O)c1ccccc1C2=NOC [Compound 122, (E) and (Z)-1-butyl-3-ethyl-4-(methoxylimino)-9-oxo-4,9-dihydro-1H-naphthol[2,3-d]imidazole-3-iodide] | > 100 | 33 | 52 | 1.8 | 
 |  |  | C[n+]1cn(-c2cccc(F)c2)c2c1/C(=N/O)c1ccccc1C2=O [Compound 110, (E)-1-(3-fluorophenyl)-4-(hydroxylimino)-3-methyl-9-oxo-4,9-dihydro-1H-naphthol[2,3-d]imidazole-3-iodide] | > 100 | 42.3 | 49 | 17.2 | 
 |  |  | CC(C)=CCn1c[n+](C)c2c1C(=O)c1ccccc1/C2=N\O [Compound 101, (E)-4-(hydroxylimino)-3-methyl-1-(3-methyl-2-ene-1-yl)-9-oxo-4,9-dihydro-1H-naphthol[2,3-d]imidazole-3-iodide] | 13.1 | 0.87 | 1.8 | 0.64 | 
 |  |  | C=CCON=C1c2cc3ccccc3cc2C(=O)c2c1[n+](C)cn2C [Compound 150, (E) and (Z)-4-((allyloxy)imino)-1,3-dimethyl-11-oxo-4,11-dihydro-1H-anthracene[2,3-d]imidazole-3-iodide] | 97.8 | 45.9 | 34.4 | 0.46 | 
 |  |  | CCCCn1c[n+](C)c2c1C(=O)c1ccccc1C2=NOCC [Compound 120, (E) and (Z)-1-butyl-4-(ethoxylimino)-3-methyl-9-oxo-4,9-dihydro-1H-naphthol[2,3-d]imidazole-3-iodide] | > 100 | 13 | 26 | 0.69 | 
 |  |  | Cn1c[n+](C)c2c1C(=O)c1ccccc1C2=NOCC1CC1 [Compound 131, (E) and (Z)-4-((cyclopropylmethoxy)imino)-1,3-dimethyl-9-oxo-4,9-dihydro-1H-naphthol[2,3-d]imidazole-3-iodide] | 24.7 | 9.9 | 21 | 0.07 | 
 |  |  | C[n+]1cn(C(C)(C)C)c2c1/C(=N/O)c1ccccc1C2=O [Compound 98, (E)-1-(tert-butyl)-4-(hydroxylimino)-3-methyl-9-oxo-4,9-dihydro-1H-naphthol[2,3-d]imidazole-3-iodide] | 38.9 | 1.81 | 2.18 | 0.59 | 
 |  |  | C=CCON=C1c2ccccc2C(=O)c2c1[n+](C)cn2C [Compound 132, (E) and (Z)-4-((allyloxy)imino)-1,3-dimethyl-9-oxo-4,9-dihydro-1H-naphthol[2,3-d]imidazole-3-iodide] | 2.4 | 56.1 | 46.3 | 0.06 | 
 |  |  | Cn1c[n+](C)c2c1C(=O)c1ccccc1/C2=N\O [Compound 91, (E)-1-methyl-4-(hydroxylimino)-3-methyl-9-oxo-4,9-dihydro-1H-naphthol[2,3-d]imidazole-3-iodide] | 4.7 | 0.84 | 0.67 | 0.53 | 
 |  |  | Cn1c[n+](C)c2c1C(=O)c1ccccc1/C2=N\OCC1OCCO1 [Compound 143, (E)-4-(((1,3-dioxoheterocycle-2-yl)methoxy)imino)-1,3-dimethyl-9-oxo-4,9-dihydro-1H-naphthol[2,3-d]imidazole-3-iodide] | 34.8 | 34.9 | 25.8 | 0.03 | 
26.8 | 13.2 | 0.02 | COCCOCCOCCO/N=C1\c2ccccc2C(=O)c2c1[n+](C)cn2C [Compound 147, (E) and (Z)-4-((2-(2-(2-methoxyethoxy)ethoxy)ethoxy)imino)-1,3-dimethyl-9-oxo-4,9-dihydro-1H-naphthol[2,3-d]imidazole-3-iodide] |  |  |  |  | 15.7
 |  |  | C[n+]1cn(-c2ccccc2F)c2c1/C(=N/O)c1ccccc1C2=O [Compound 109, (E)-1-(2-fluorophenyl)-4-(hydroxylimino)-3-methyl-9-oxo-4,9-dihydro-1H-naphthol[2,3-d]imidazole-3-iodide] | > 100 | 57.8 | 50 | 11.2 | 
 |  |  | COCCn1c[n+](C)c2c1C(=O)c1ccccc1/C2=N\O [Compound 100, (E)-4-(hydroxylimino)-1-(2-methoxyethyl)-3-methyl-9-oxo-4,9-dihydro-1H-naphthol[2,3-d]imidazole-3-iodide] | 6.64 | 0.87 | 2.18 | 0.62 | 
 |  |  | Cn1c[n+](C)c2c1C(=O)c1ccccc1C2=NOC(C)(C)C [Compound 130, (E) and (Z)-4-(tert-butoxyimino)-1,3-dimethyl-9-oxo-4,9-dihydro-1H-naphthol[2,3-d]imidazole-3-iodide] | > 100 | 56.2 | 48.4 | 0.6 | 
 |  |  | CCn1c[n+](C)c2c1C(=O)c1ccccc1/C2=N\O [Compound 92, (E)-1-ethyl-4-(hydroxylimino)-3-methyl-9-oxo-4,9-dihydro-1H-naphthol[2,3-d]imidazole-3-iodide] | 13.5 | 0.94 | 1.63 | 0.54 | 
 |  |  | CC(C)CON=C1c2ccccc2C(=O)c2c1[n+](C)cn2C [Compound 129, (E) and (Z)-4-(isobutoxyimino)-1,3-dimethyl-9-oxo-4,9-dihydro-1H-naphthol[2,3-d]imidazole-3-iodide] | 26.4 | 12.1 | 8.7 | 0.07 | 
 |  |  | Cn1c[n+](C)c2c1C(=O)c1ccccc1C2=NOCc1c(F)c(F)c(F)c(F)c1F [Compound 137, (E) and (Z)-1,3-dimethyl-9-oxo-4-(((perfluorophenyl)methoxy)imino)-4,9-dihydro-1H-naphthol[2,3-d]imidazole-3-iodide] | 9.7 | 24.8 | 15.4 | 0.05 | 
 |  |  | C[n+]1cn(-c2ccc(F)c(Br)c2)c2c1/C(=N/O)c1ccccc1C2=O [Compound 117, (E)-1-(3-bromo-4-fluorophenyl)-4-(hydroxylimino)-3-methyl-9-oxo-4,9-dihydro-1H-naphthol[2,3-d]imidazole-3-iodide] | > 100 | 67.7 | 87.8 | 5.2 | 
 |  |  | C[n+]1cn(CC2OCCO2)c2c1/C(=N/O)c1ccccc1C2=O [Compound 107, (E)-1-((1,3-dioxoheterocycle-2-yl)methyl)-4-(hydroxylimino)-3-methyl-9-oxo-4,9-dihydro-1H-naphthol[2,3-d]imidazole-3-iodide] | > 100 | 9.85 | > 100 | 0.6 | 
 |  |  | Cn1c[n+](C)c2c1C(=O)c1cc3ccccc3cc1C2=NOCc1ccc([N+](=O)[O-])cc1 [Compound 151, (E) and (Z)-1,3-dimethyl-4-(((4-nitrobenzyl)oxy)imino)-11-oxo-4,11-dihydro-1H-anthracene[2,3-d]imidazole-3-iodide] | 89.6 | 78.8 | 56.8 | 0.12 | 
 |  |  | Cn1c[n+](C)c2c1C(=O)c1ccccc1C2=NOc1ccccc1 [Compound 142, (E) and (Z)-4-((phenoxy)imino)-1,3-dimethyl-9-oxo-4,9-dihydro-1H-naphthol[2,3-d]imidazole-3-iodide] | 61.3 | 43.5 | 34 | 0.06 | 
32.8 | 23 | 0.009 | COCCOCCO/N=C1\c2ccccc2C(=O)c2c1[n+](C)cn2C [Compound 146, (E)-4-((2-(2-methoxyethoxy)ethoxy)imino)-1,3-dimethyl-9-oxo-4,9-dihydro-1H-naphthol[2,3-d]imidazole-3-iodide] |  |  |  |  | 24.6
34.8 | 34.2 | 0.04 | Cn1c[n+](C)c2c1C(=O)c1ccccc1/C2=N\OCCOCc1ccccc1 [Compound 145, (E)-4-((2-(benzyloxy)ethoxy)imino)-1,3-dimethyl-9-oxo-4,9-dihydro-1H-naphthol[2,3-d]imidazole-3-iodide] |  |  |  |  | 45.1
